Values after ≈ are worked out from the molar mass of the structure shown. Where two headings read alike, the source gives them in different places.
What was measured:
MRSA 1 = assay: Zone of inhibition, agar well; details: antibiotic amount (1-200 mcg)
S. aureus ATCC 6538 P = assay: Zone of inhibition, agar well; details: antibiotic amount (1-200 mcg)
MRSA 2 = assay: Zone of inhibition, agar well; details: antibiotic amount (1-200 mcg)
[1] = test system: Pseudomonas aeruginosa MDR clinical isolate (sputum); assay: Antibiotic sensitivity, Kirby Bauer; details: gram-negative isolate Pseudomonas
[2] = test system: Escherichia coli MDR clinical isolate (stool); assay: Antibiotic sensitivity, Kirby Bauer; details: for resistance of isolate: gram-negative isolate E. coli
S.typhi = assay: Zone of inhibition, agar well; details: antibiotic amount (5-200 mcg)
E. coil = assay: Zone of inhibition, agar well; details: E.coli; antibiotic amount (5-200 mcg)
S. boydii = assay: MIC/MBC broth microdilution; type: cell-based, Shigella boydii; details: S. boydii
S. pyogenes = assay: MIC/MBC broth microdilution; type: cell-based, Streptococcus pyogenes
E. coli = assay: MIC/MBC broth microdilution; type: cell-based, Escherichia coli
S. faecalis = assay: MIC/MBC broth microdilution; type: cell-based, Streptococcus faecalis
S gordonii = assay: MIC/MBC broth microdilution; type: cell-based, Streptococcus gordonii
S. typhimurium = assay: MIC/MBC broth microdilution; type: cell-based; details: S. typhimurium
K. oxytoca = assay: MIC/MBC broth microdilution; type: cell-based; details: K. oxytoca
S. aureus = assay: MIC/MBC broth microdilution; type: cell-based, Staphylococcus aureus
S arizona = assay: MIC/MBC broth microdilution; type: cell-based, Salmonella arizona
P. aeruginosa = assay: MIC/MBC broth microdilution; type: cell-based, Pseudomonas aeruginosa
K. pneumoniae = assay: MIC/MBC broth microdilution; type: cell-based, Klebsiella pneumoniae
S. mutans = assay: MIC/MBC broth microdilution; type: cell-based, Streptococcus mutans
S. pneumoniae = assay: MIC/MBC broth microdilution; type: cell-based
E. aerogenes = assay: MIC/MBC broth microdilution; type: cell-based, Enterobacter aerogenes
E. cloacae = assay: MIC/MBC broth microdilution; type: cell-based
[3] = Enterobacter cloacae, read-out: MIC
[4] = Streptococcus pyogenes, read-out: MBC
[5] = Streptococcus pyogenes, read-out: MIC
[6] = Escherichia coli, read-out: MBC
[7] = Escherichia coli, read-out: MIC
[8] = Enterococcus faecalis, read-out: MBC
[9] = Enterococcus faecalis, read-out: MIC
[10] = Streptococcus gordonii, read-out: MBC
[11] = Streptococcus gordonii, read-out: MIC
[12] = Salmonella enterica, read-out: MBC
[13] = Salmonella enterica, read-out: MIC
[14] = Staphylococcus aureus, read-out: MBC
[15] = Staphylococcus aureus, read-out: MIC
[16] = Pseudomonas aeruginosa, read-out: MBC
[17] = Pseudomonas aeruginosa, read-out: MIC
[18] = Klebsiella pneumoniae, read-out: MIC
[19] = Streptococcus mutans, read-out: MBC
[20] = Streptococcus mutans, read-out: MIC
[21] = Streptococcus pneumoniae, read-out: MBC
[22] = Streptococcus pneumoniae, read-out: MIC

CC1(C)S[C@@H]2[C@H](NC(=O)[C@H](N)c3ccccc3)C(=O)N2[C@H]1C(=O)O [Ampicillin]
zone of inhibition, antibiotics (MRSA 1): 15 mm
zone of inhibition, antibiotics (S. aureus ATCC 6538 P): Clear
zone of inhibition, antibiotics (MRSA 2): 18 mm
resistance of isolate [1]: resistance
resistance of isolate [2]: resistance
zone of inhibition, antibiotics (S.typhi): 20 mm
zone of inhibition, antibiotics (E. coil): 23 mm

CCN1CCN(C(=O)N[C@@H](C(=O)N[C@@H]2C(=O)N3C(C(=O)O)=C(CSc4nnnn4C)CS[C@H]23)c2ccc(O)cc2)C(=O)C1=O [Cefaperazon]
MBC (S. boydii): 0.625/0.625 ppm
MIC (S. boydii): 0.625/0.625 ppm
MBC (S. pyogenes): 1.25 ppm
MIC (S. pyogenes): 0.313 ppm
MBC (E. coli): > 5.0 ppm
MIC (E. coli): 0.625 ppm
MIC (S. faecalis): >5.0 ppm
MBC (S gordonii; S gordonii): 1.25/1.25 ppm
MIC (S gordonii; S gordonii): 1.25/1.25 ppm
MBC (S. typhimurium): 2.5 ppm
MIC (S. typhimurium): 1.25 ppm
MBC (K. oxytoca): > 5.0 ppm
MIC (K. oxytoca): 1.25 ppm
MBC (S. aureus): 5.0/5.0 ppm
MIC (S. aureus): 5.0/5.0 ppm
MBC (S arizona): > 5.0 ppm
MIC (S arizona): 0.833 ppm
MBC (P. aeruginosa): 5.0 ppm
MIC (P. aeruginosa): 2.5 ppm
MIC (K. pneumoniae): >5.0 ppm
MBC (S. mutans): > 5 ppm
MIC (S. mutans): 1.25 ppm
MBC (S. pneumoniae): 0.313/0.313 ppm
MIC (S. pneumoniae): 0.313/0.313 ppm
MBC (E. aerogenes; E. aerogenes): > 5.0 ppm
MIC (E. aerogenes; E. aerogenes): 2.92 ppm

CO/N=C(\C(=O)N[C@@H]1C(=O)N2C(C(=O)O)=C(COC(C)=O)CS[C@H]12)c1csc(N)n1 [Cefotaxime]
zone of inhibition, antibiotics (S. aureus ATCC 6538 P): 26 mm
zone of inhibition, antibiotics (MRSA 2): -Clear
zone of inhibition, antibiotics (S.typhi): 22 mm
zone of inhibition, antibiotics (E. coil): 21 mm

O=C(O)c1cn(C2CC2)c2cc(N3CCNCC3)c(F)cc2c1=O [Ciprofloxacin]
zone of inhibition, antibiotics (MRSA 1): 14 mm
zone of inhibition, antibiotics (S. aureus ATCC 6538 P): 28 mm
zone of inhibition, antibiotics (MRSA 2): 14 mm
zone of inhibition, antibiotics (S.typhi): 25 mm
zone of inhibition, antibiotics (E. coil): 29 mm

Cc1onc(-c2ccccc2Cl)c1C(=O)N[C@@H]1C(=O)N2[C@@H]1SC(C)(C)[C@@H]2C(=O)O [Cloxacillin]
zone of inhibition, antibiotics (MRSA 1): Clear
zone of inhibition, antibiotics (S. aureus ATCC 6538 P): Clear
zone of inhibition, antibiotics (MRSA 2): 13 mm

CC[C@H]1OC(=O)[C@H](C)[C@@H](O[C@H]2C[C@@](C)(OC)[C@@H](O)[C@H](C)O2)[C@H](C)[C@@H](O[C@@H]2O[C@H](C)C[C@H](N(C)C)[C@H]2O)[C@](C)(O)C[C@@H](C)C(=O)[C@H](C)[C@@H](O)[C@]1(C)O [Erythromycin]
MBC (S. boydii; Shigella boydii, read-out: MBC): > 5 µg/mL
MIC (S. boydii; Shigella boydii, read-out: MIC): 5 µg/mL (≈ 6.81 µM)
MIC (E. cloacae; [3]): > 5 µg/mL
MBC (S. pyogenes; [4]): 0.019 µg/mL (≈ 0.0259 µM)
MIC (S. pyogenes; [5]): 0.003 µg/mL (≈ 0.00409 µM)
MBC (E. coli; [6]): > 5 µg/mL
MIC (E. coli; [7]): 5 µg/mL (≈ 6.81 µM)
MBC (S. faecalis; [8]): 1.25 µg/mL (≈ 1.7 µM)
MIC (S. faecalis; [9]): 0.009 µg/mL (≈ 0.0123 µM)
MBC (S gordonii; [10]): 0.019 µg/mL (≈ 0.0259 µM)
MIC (S gordonii; [11]): 0.005 µg/mL (≈ 0.00681 µM)
MBC (S. typhimurium; [12]): > 5 µg/mL
MIC (S. typhimurium; [13]): 5 µg/mL (≈ 6.81 µM)
MIC (K. oxytoca; Klebsiella oxytoca, read-out: MIC): > 5 µg/mL
MBC (S. aureus; [14]): > 5 µg/mL
MIC (S. aureus; [15]): 0.039 µg/mL (≈ 0.0531 µM)
MBC (S arizona; Salmonella, read-out: MBC): > 5 µg/mL
MIC (S arizona; Salmonella, read-out: MIC): 4.17 µg/mL (≈ 5.68 µM)
MBC (P. aeruginosa; [16]): > 5 µg/mL
MIC (P. aeruginosa; [17]): 2.5 µg/mL (≈ 3.41 µM)
MIC (K. pneumoniae; [18]): > 5 µg/mL
MBC (S. mutans; [19]): 0.019 µg/mL (≈ 0.0259 µM)
MIC (S. mutans; [20]): 0.009 µg/mL (≈ 0.0123 µM)
MBC (S. pneumoniae; [21]): 0.004 µg/mL (≈ 0.00545 µM)
MIC (S. pneumoniae; [22]): 0.002 µg/mL (≈ 0.00273 µM)
MIC (E. aerogenes; Klebsiella aerogenes, E. aerogenes, read-out: MIC): > 5 µg/mL

CCC[C@@H]1C[C@@H](C(=O)N[C@@H]([C@H]2O[C@H](SC)[C@H](O)[C@@H](O)[C@H]2O)[C@@H](C)O)N(C)C1 [Lincomycin]
zone of inhibition, antibiotics (MRSA 1): Clear
zone of inhibition, antibiotics (S. aureus ATCC 6538 P): 1Clear
zone of inhibition, antibiotics (MRSA 2): Clear

CC1COc2c(N3CCN(C)CC3)c(F)cc3c(=O)c(C(=O)O)cn1c23 (stereo not drawn) [Ofloxacin]
MBC (S. boydii; Shigella boydii, read-out: MBC): 0.156 µg/mL (≈ 0.432 µM)
MIC (S. boydii; Shigella boydii, read-out: MIC): 0.078 µg/mL (≈ 0.216 µM)
MBC (E. cloacae; Enterobacter cloacae): 0.156 µg/mL (≈ 0.432 µM)
MIC (E. cloacae; [3]): 0.156 µg/mL (≈ 0.432 µM)
zone of inhibition, antibiotics (MRSA 1): 15 mm
MBC (S. pyogenes; [4]): 2.5 µg/mL (≈ 6.92 µM)
MIC (S. pyogenes; [5]): 1.25 µg/mL (≈ 3.46 µM)
MBC (E. coli; [6]): 0.156 µg/mL (≈ 0.432 µM)
MIC (E. coli; [7]): 0.104 µg/mL (≈ 0.288 µM)
MBC (S. faecalis; [8]): 5 µg/mL (≈ 13.8 µM)
MIC (S. faecalis; [9]): 1.25 µg/mL (≈ 3.46 µM)
MBC (S gordonii; [10]): 5 µg/mL (≈ 13.8 µM)
MIC (S gordonii; [11]): 2.5 µg/mL (≈ 6.92 µM)
MBC (S. typhimurium; [12]): 0.156 µg/mL (≈ 0.432 µM)
MIC (S. typhimurium; [13]): 0.078 µg/mL (≈ 0.216 µM)
MBC (S. aureus; [14]): 0.625 µg/mL (≈ 1.73 µM)
MIC (S. aureus; [15]): 0.417 µg/mL (≈ 1.15 µM)
MBC (S arizona; Salmonella, read-out: MBC): 0.078 µg/mL (≈ 0.216 µM)
MIC (S arizona; Salmonella, read-out: MIC): 0.078 µg/mL (≈ 0.216 µM)
MBC (P. aeruginosa; [16]): 0.313 µg/mL (≈ 0.866 µM)
MIC (P. aeruginosa; [17]): 0.156 µg/mL (≈ 0.432 µM)
zone of inhibition, antibiotics (MRSA 2): 16 mm
MBC (K. pneumoniae; Klebsiella pneumoniae): 0.625 µg/mL (≈ 1.73 µM)
MIC (K. pneumoniae; [18]): 0.417 µg/mL (≈ 1.15 µM)
MBC (S. mutans; [19]): > 5 µg/mL
MIC (S. mutans; [20]): 2.5 µg/mL (≈ 6.92 µM)
MBC (S. pneumoniae; [21]): 2.5 µg/mL (≈ 6.92 µM)
MIC (S. pneumoniae; [22]): 2.5 µg/mL (≈ 6.92 µM)
MBC (E. aerogenes; Klebsiella aerogenes): 0.156 µg/mL (≈ 0.432 µM)
MIC (E. aerogenes; Klebsiella aerogenes): 0.078 µg/mL (≈ 0.216 µM)

CCn1cc(C(=O)O)c(=O)c2cc(F)c(N3CCN(C)CC3)cc21 [Peflofloxacin]
zone of inhibition, antibiotics (MRSA 1): 11 mm
zone of inhibition, antibiotics (S. aureus ATCC 6538 P): 30 mm
zone of inhibition, antibiotics (MRSA 2): 13 mm
zone of inhibition, antibiotics (S.typhi): clear
zone of inhibition, antibiotics (E. coil): Clear

CC1(C)S[C@@H]2[C@H](NC(=O)Cc3ccccc3)C(=O)N2[C@H]1C(=O)O [Penicillin G]
MIC (S. boydii): >5.0 ppm
MIC (E. cloacae): >5.0 ppm
MIC (S. pyogenes): >5.0 ppm
MIC (E. coli): >5.0 ppm
MBC (S. faecalis): 5.0/>5.0 ppm
MIC (S. faecalis): 5.0/>5.0 ppm
MBC (S gordonii; S gordonii): 0.039 ppm
MIC (S gordonii; S gordonii): 0.009 ppm
MIC (S. typhimurium): >5.0 ppm
MIC (K. oxytoca): >5.0 ppm
MBC (S. aureus): > 5.0 ppm
MIC (S. aureus): 2.5 ppm
MIC (S arizona): >5.0 ppm
MBC (P. aeruginosa): > 5.0 ppm
MIC (P. aeruginosa): 0.13 ppm
MIC (K. pneumoniae): >5.0 ppm
MBC (S. mutans): > 5 ppm
MIC (S. mutans): 0.521 ppm
MBC (S. pneumoniae): 0.019/0.019 ppm
MIC (S. pneumoniae): 0.019/0.019 ppm
MIC (E. aerogenes; E. aerogenes): >5.0 ppm

CCN1CCN(C(=O)N[C@@H](C(=O)N[C@@H]2C(=O)N3[C@@H]2SC(C)(C)[C@@H]3C(=O)O)c2ccccc2)C(=O)C1=O [Piperacillin]
zone of inhibition, antibiotics (S.typhi): 16 mm
zone of inhibition, antibiotics (E. coil): 22 mm

NC[C@H]1O[C@H](O[C@H]2[C@H](O)[C@@H](O[C@H]3O[C@H](CO)[C@@H](O)[C@H](N)[C@H]3O)[C@H](N)C[C@@H]2N)[C@H](O)[C@@H](O)[C@@H]1O [kanamycin]
Zone size (mm) ([2]; E.c, Kirby-Bauer antibiotic disc): 14 mm

CCn1cc(C(=O)O)c(=O)c2ccc(C)nc21 [nalidixic acid]
resistance of isolate [1]: resistance
resistance of isolate [2]: resistance
